According to US6248586A, “Antisense modulation of PKA catalytic subunit C-alpha expression” (Isis Pharmaceuticals, Inc., priority 1999, dated 2001):

tested on: human PKA catalytic subunit C-alpha mRNA; test: Inhibition of PKA catalytic subunit C-alpha mRNA levels in oligonucleotide-treated cells, quantitative real-time PCR; format: cell-based; design: concentration or dose not given beside the values; details: Table 1, phosphorothioate oligodeoxynucleotides, averages from two experiments
Protocol: when cells reached 80% confluency, they were treated with oligonucleotide. For cells grown in 96-well plates, wells were washed once with 200 μL. OPTI-MEM™-1 reduced-serum medium (Gibco BRL) and then treated with 130 μL of OPTI-MEM™-1 containing 3.75 μg/mL LIPOFECTIN™ (Gibco BRL) and the desired concentration of oligonucleotide. After 4-7 hours of treatment, the medium was replaced with fresh medium. Cells were harvested 16-24 hours after oligonucleotide treatment.
Poly(A)+ mRNA was isolated according to Miura et al., Clin. Chem., 1996, 42, 1758-1764. Other methods for poly(A)+ mRNA isolation are taught in, for example, Ausubel, F. M. et al., Current Protocols in Molecular Biology, Volume 1, pp. 4.5.1-4.5.3, John Wiley & Sons, Inc., 1993. Briefly, for cells grown on 96-well plates, growth medium was removed from the cells and each well was washed with 200 μL cold PBS. 60 μL lysis buffer (10 mM Tris-HCl, pH 7.6, 1 mM EDTA, 0.5 M NaCl, 0.5% NP-40, 20 mM vanadyl-ribonucleoside complex) was added to each well, the plate was gently agitated and then incubated at room temperature for five minutes. 55 μL of lysate was transferred to Oligo d(T) coated 96-well plates (AGCT Inc., Irvine Calif.). Plates were incubated for 60 minutes at room temperature, washed 3 times with 200 μL of wash buffer (10 mM Tris-HCl pH 7.6, 1 mM EDTA, 0.3 M NaCl). After the final wash, the plate was blotted on paper towels to remove excess wash buffer and then air-dried for 5 minutes. 60 μL of elution buffer (5 mM Tris-HCl pH 7.6), preheated to 70° C. was added to each well, the plate was incubated on a 90° C. hot plate for 5 minutes, and the eluate was then transferred to a fresh 96-well plate.
Quantitat:ion of PKA catalytic subunit C-alpha mRNA levels was determined by real-time quantitative PCR using the ABI PRISM™ […] Sequence Detection System (PE-Applied Biosystems, Foster City, Calif.) according to manufacturer's instructions. This is a closed-tube, non-gel-based, fluorescence detection system which allows high-throughput quantitation of polymerase chain reaction (PCR) products in real-time. As opposed to standard PCR, in which amplification products are quantitated after the PCR is completed, products in real-time quantitative PCR are quantitated as they accumulate. This is accomplished by including in the PCR reaction an oligonucleotide probe that anneals specifically between the forward and reverse PCR primers, and contains two fluorescent dyes. A reporter dye (e.g., JOE, FAM, or VIC, obtained from either Operon Technologies Inc., Alameda, Calif. or PE-Applied Biosystems, Foster City, Calif.) is attached to the 5' end of the probe and a quencher dye (e.g., TAMRA, obtained from either Operon Technologies Inc., Alameda, Calif. or PE-Applied Biosystems, Foster City, Calif.) is attached to the 3' end of the probe. When the probe and dyes are intact, reporter dye emission is quenched by the proximity of the 3' quencher dye. During amplification, annealing of the probe to the target sequence creates a substrate that can be cleaved by the 5'-exonuclease activity of Taq polymerase. […] With each cycle, additional reporter dye molecules are cleaved from their respective probes, and the fluorescence intensity is monitored at regular intervals by laser optics built into the ABI PRISM™ 7700 Sequence Detection System. In each assay, a series of parallel reactions containing serial dilutions of mRNA from untreated control samples generates a standard curve that is used to quantitate the percent inhibition after antisense oligonucleotide treatment of test samples.
PCR reagents were obtained from PE-Applied Biosystems, Foster City, Calif. […]

Row | Substance | % Inhibition of PKA catalytic subunit C-alpha mRNA levels [%]
1 | 102444 (antisense CCCATCGCGGCGGCGGCGGC; chemistry not given here) [compound 102444] | 47
2 | 102436 (antisense TGGCTGCGGCCGGCGGCCCG; chemistry not given here) [compound 102436] | 49
3 | 102543 (antisense GCTTCTCTTTAAAATGGATT; chemistry not given here) [compound 102543] | 16
4 | 102584 (antisense CACACAGGTTGAATCGCCCC; chemistry not given here) [compound 102584] | 61
5 | 102440 (antisense TCGCGGCGGCGGCGGCCGGG; chemistry not given here) [compound 102440] | 19
6 | 102474 (antisense ATTCTTTCACGCTCTCCTGC; chemistry not given here) [compound 102474] | 3
7 | 102470 (antisense GGCGGCGGCGGCGTTGCCCA; chemistry not given here) [compound 102470] | 49
8 | 102466 (antisense CGGCGGCGGCGTTGCCCATC; chemistry not given here) [compound 102466] | 79
9 | 102522 (antisense CTTCCTCATAGTCGTCAAAG; chemistry not given here) [compound 102522] | 32
10 | 102494 (antisense GTTGTCCTTGAAGGAGAACT; chemistry not given here) [compound 102494] | 0
11 | 102458 (antisense GGCGGCGTTGCCCATCGCGG; chemistry not given here) [compound 102458] | 69
12 | 102526 (antisense GGCATGCCCCTAAAACTCAG; chemistry not given here) [compound 102526] | 45
13 | 102510 (antisense TCTGCGAAGAAGGGCGGGTA; chemistry not given here) [compound 102510] | 0
14 | 102462 (antisense GCGGCGGCGTTGCCCATCGC; chemistry not given here) [compound 102462] | 67
15 | 102490 (antisense GCTTGCAGGATGCGCTTTTC; chemistry not given here) [compound 102490] | 66
16 | 102478 (antisense CAAACTGATCCAAGTGGGCT; chemistry not given here) [compound 102478] | 73
17 | 102486 (antisense CTTCTGTTTGTCGAGGATCT; chemistry not given here) [compound 102486] | 51
18 | 102498 (antisense GAACATCTCCCCGCCGGGCA; chemistry not given here) [compound 102498] | 13
19 | 102558 (antisense TGCAGGGATGCCCTCCCCAC; chemistry not given here) [compound 102558] | 65
20 | 102530 (antisense GGAGCAGCTGGTGTTTCTGT; chemistry not given here) [compound 102530] | 39
21 | 102589 (antisense TAGTTTTCAAATATGTTTAC; chemistry not given here) [compound 102589] | 0
22 | 102534 (antisense TTGGCGCTTCGTTCATTTGC; chemistry not given here) [compound 102534] | 39
23 | 102438 (antisense GCGGCGGGTGCTGGCTGCGG; chemistry not given here) [compound 102438] | 15

same assay, conditions: Table 2, chimeric phosphorothioate 2'-MOE gapmers, averaged from two experiments

Row | Substance | % Inhibition of PKA catalytic subunit C-alpha mRNA levels [%]
24 | 102636 (antisense GGCGGCGTTGCCCATCGCGG; chemistry not given here) [compound 102636] | 41
25 | 102727 (antisense CGCTGCTGGGAGGAAAGACT; chemistry not given here) [compound 102727] | 60
26 | 102680 (antisense TAGATGAGATCCAGCGAGTG; chemistry not given here) [compound 102680] | 33
27 | 102724 (antisense ACCCTCGCAGGATTGGCAGA; chemistry not given here) [compound 102724] | 55
28 | 102619 (antisense TGCCCATCGCGGCGGCGGCG; chemistry not given here) [compound 102619] | 70
29 | 102633 (antisense CGGCGTTGCCCATCGCGGCG; chemistry not given here) [compound 102633] | 81
30 | 102716 (antisense AAGCAACCCACTGAACATGT; chemistry not given here) [compound 102716] | 63
31 | 102624 (antisense GTTGCCCATCGCGGCGGCGG; chemistry not given here) [compound 102624] | 81
32 | 102599 (antisense GCGGCGGGTGCTGGCTGCGG; chemistry not given here) [compound 102599] | 77
33 | 102738 (antisense CAGGCAGCCCCTCCCCAGCA; chemistry not given here) [compound 102738] | 31
34 | 102664 (antisense CTTCTGTTTGTCGAGGATCT; chemistry not given here) [compound 102664] | 76
35 | 102703 (antisense GGCATGCCCCTAAAACTCAG; chemistry not given here) [compound 102703] | 26
36 | 102629 (antisense GCGTTGCCCATCGCGGCGGC; chemistry not given here) [compound 102629] | 79
37 | 102736 (antisense CCTTGAACCCCGGGCCGTGG; chemistry not given here) [compound 102736] | 65
38 | 102750 (antisense TAGTTTTCAAATATGTTTAC; chemistry not given here) [compound 102750] | 66
39 | 102747 (antisense CACACAGGTTGAATCGCCCC; chemistry not given here) [compound 102747] | 81
40 | 102711 (antisense TTGGCGCTTCGTTCATTTGC; chemistry not given here) [compound 102711] | 60
41 | 102696 (antisense AAACCACTTGTGGTTCTTGA; chemistry not given here) [compound 102696] | 71
42 | 102741 (antisense AGCACAAATGAGAAAGTGGG; chemistry not given here) [compound 102741] | 53
43 | 102640 (antisense GCGGCGGCGTTGCCCATCGC; chemistry not given here) [compound 102640] | 87
44 | 102744 (antisense TGGCTCCCCAGCGGCTCCCC; chemistry not given here) [compound 102744] | 77
